{"source": "patent US20060093676A1", "about": "“Ascorbic acid stability” (priority 2002, published 2006)", "origin": "cited, not measured here", "conditions": "in water", "data": [{"smiles": "O=C1O[C@H]([C@@H](O)CO)C(O)=C1O", "note": "[L-Ascorbic acid]", "values": [{"measurement": "pK of acid-ionizable hydrogen", "result": 4.2}]}]}
